The values below come from BindingDB's records for patent US11919896 (Zhuhai United Laboratories Co., 2024).

Common to all, as to test: In Vitro Test of Activities of Jak1, Jak2, Jak3, Tyk2 Kinases
In assay [1] the target is Non-receptor tyrosine-protein kinase TYK2 (Homo sapiens, UniProt P29597).
Assay [2] addresses Tyrosine-protein kinase JAK1 (Homo sapiens, UniProt P23458).
For assay [3], the target named is Tyrosine-protein kinase JAK2 (Homo sapiens, UniProt O60674).
In assay [4] the target is T1, Tyrosine-protein kinase JAK3 (Homo sapiens, UniProt P52333).
T1 sequence (P52333 whole entry): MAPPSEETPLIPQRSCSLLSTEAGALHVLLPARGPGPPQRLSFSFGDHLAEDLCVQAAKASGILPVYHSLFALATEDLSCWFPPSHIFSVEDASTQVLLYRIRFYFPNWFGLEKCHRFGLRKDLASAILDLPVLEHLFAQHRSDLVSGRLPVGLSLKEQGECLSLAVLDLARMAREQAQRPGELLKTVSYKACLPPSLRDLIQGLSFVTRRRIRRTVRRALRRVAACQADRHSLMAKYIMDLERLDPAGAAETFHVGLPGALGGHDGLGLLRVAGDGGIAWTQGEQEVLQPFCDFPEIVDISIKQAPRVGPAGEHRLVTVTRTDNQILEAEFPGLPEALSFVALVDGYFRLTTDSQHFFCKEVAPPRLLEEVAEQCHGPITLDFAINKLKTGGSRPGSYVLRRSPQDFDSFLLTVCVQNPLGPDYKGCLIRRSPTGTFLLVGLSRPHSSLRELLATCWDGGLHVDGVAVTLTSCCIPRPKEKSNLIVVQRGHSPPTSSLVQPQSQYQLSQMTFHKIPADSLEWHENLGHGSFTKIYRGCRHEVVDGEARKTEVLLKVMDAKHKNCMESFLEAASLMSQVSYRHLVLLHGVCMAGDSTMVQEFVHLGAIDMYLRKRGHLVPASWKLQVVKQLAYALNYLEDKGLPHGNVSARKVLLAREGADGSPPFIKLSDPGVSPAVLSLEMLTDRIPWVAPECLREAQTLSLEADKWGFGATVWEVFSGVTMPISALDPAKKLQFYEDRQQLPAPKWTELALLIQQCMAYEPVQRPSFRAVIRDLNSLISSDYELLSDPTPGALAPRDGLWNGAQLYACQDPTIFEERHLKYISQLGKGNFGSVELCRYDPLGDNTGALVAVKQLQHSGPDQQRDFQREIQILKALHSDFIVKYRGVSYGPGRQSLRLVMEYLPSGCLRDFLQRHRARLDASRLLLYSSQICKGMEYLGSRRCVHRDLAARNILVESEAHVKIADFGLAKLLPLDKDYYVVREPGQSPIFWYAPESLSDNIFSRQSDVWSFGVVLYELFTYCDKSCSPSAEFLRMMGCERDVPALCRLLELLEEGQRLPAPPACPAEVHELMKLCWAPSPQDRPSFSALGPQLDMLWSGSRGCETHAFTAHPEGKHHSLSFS

Chain of Non-receptor tyrosine-protein kinase TYK2 (P29597 whole entry): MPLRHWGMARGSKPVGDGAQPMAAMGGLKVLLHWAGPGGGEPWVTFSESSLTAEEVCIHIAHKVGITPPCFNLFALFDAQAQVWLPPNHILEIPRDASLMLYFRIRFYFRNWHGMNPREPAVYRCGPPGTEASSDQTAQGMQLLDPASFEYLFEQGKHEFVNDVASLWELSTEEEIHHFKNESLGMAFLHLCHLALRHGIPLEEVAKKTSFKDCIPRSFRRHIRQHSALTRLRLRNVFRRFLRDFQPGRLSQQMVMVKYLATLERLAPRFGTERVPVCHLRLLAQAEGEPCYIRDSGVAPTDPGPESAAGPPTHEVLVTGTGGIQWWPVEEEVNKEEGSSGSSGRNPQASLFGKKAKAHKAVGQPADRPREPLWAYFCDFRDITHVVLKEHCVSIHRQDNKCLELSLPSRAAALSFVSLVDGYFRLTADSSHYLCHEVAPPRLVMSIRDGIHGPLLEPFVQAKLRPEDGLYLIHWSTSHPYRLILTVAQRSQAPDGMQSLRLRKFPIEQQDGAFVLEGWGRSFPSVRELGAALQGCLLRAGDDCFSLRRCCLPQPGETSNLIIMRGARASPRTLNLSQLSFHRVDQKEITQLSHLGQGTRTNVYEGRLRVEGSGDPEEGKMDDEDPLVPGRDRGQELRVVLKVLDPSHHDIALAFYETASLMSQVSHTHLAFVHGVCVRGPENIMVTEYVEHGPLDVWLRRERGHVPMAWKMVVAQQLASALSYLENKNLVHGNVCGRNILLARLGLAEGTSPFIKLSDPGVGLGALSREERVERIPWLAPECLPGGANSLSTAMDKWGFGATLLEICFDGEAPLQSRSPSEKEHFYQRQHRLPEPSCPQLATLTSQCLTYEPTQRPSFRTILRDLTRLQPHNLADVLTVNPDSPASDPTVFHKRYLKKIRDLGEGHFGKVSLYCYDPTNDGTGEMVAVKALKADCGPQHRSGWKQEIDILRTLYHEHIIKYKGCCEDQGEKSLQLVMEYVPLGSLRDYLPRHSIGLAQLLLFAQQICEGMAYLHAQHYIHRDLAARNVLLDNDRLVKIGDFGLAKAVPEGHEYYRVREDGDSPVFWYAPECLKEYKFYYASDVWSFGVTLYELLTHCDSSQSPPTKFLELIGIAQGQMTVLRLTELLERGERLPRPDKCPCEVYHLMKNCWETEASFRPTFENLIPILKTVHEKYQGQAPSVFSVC
Chain of Tyrosine-protein kinase JAK2 (O60674 whole entry): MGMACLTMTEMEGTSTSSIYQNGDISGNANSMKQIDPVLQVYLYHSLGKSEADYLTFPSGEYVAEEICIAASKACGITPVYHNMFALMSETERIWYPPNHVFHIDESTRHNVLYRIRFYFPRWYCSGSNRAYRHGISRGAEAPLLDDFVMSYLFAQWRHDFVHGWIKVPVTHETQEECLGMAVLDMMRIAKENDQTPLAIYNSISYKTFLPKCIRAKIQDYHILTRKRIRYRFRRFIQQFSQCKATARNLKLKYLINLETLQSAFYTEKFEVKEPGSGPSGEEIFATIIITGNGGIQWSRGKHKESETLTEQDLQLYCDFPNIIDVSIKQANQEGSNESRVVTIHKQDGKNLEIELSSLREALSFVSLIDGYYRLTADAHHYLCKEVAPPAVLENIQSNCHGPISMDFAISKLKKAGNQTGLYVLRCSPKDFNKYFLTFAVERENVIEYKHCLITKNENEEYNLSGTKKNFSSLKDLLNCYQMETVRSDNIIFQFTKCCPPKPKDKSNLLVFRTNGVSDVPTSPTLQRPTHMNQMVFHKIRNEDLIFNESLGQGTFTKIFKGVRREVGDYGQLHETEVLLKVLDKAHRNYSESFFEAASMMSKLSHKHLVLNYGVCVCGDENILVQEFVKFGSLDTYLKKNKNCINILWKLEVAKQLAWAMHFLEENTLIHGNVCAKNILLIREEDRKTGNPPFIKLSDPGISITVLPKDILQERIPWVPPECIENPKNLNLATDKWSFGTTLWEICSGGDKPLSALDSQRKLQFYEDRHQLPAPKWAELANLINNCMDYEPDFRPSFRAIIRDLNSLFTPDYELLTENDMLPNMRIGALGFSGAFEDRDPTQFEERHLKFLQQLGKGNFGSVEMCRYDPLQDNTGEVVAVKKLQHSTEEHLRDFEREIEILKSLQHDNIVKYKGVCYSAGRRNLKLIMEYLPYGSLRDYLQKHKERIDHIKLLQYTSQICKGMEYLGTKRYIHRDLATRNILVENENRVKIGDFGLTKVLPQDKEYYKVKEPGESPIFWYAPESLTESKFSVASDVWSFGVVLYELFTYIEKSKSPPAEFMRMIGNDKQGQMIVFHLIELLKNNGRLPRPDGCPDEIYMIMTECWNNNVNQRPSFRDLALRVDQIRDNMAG
Chain of Tyrosine-protein kinase JAK1 (P23458 whole entry): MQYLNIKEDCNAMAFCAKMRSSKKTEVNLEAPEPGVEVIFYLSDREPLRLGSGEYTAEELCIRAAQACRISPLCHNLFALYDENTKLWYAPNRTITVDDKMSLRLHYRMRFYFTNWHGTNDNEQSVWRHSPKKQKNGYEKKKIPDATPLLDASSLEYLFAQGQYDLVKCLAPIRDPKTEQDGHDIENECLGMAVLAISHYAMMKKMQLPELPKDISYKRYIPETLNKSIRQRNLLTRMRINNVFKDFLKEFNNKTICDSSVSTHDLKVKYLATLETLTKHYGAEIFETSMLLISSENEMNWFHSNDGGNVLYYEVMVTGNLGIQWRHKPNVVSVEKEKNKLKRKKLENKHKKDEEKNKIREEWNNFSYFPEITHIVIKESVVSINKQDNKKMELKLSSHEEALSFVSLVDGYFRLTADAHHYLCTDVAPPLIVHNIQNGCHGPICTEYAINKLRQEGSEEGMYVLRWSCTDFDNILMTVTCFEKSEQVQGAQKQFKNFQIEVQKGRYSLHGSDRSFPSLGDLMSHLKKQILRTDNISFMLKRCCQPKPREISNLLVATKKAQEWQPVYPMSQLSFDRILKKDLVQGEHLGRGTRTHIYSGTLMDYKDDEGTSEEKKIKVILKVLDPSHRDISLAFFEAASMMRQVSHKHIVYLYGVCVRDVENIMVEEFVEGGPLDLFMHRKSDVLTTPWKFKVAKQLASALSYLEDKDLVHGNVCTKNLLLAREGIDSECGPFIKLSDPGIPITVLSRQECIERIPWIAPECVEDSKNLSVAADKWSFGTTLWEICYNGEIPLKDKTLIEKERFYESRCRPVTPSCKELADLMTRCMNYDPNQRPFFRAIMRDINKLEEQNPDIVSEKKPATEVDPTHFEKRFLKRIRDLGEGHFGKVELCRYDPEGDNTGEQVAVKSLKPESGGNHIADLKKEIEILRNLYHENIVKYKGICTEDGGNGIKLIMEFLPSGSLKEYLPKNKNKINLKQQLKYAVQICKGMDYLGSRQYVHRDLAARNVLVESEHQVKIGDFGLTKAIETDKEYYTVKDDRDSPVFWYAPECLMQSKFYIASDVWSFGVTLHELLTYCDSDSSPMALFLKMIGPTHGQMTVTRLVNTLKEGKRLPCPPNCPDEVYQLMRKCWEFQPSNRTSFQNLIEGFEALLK

Take `O=C(Nc1nc2cccc(C3(F)CCC4(CC3)CN(C(=O)CC(F)(F)F)C4)n2n1)C1CC1` [US11919896, Compound 4-7]: the half-inhibitory concentration (IC50) in assay [1] was 0.194 µM; in assay [2], 0.436 µM; in assay [3], 7.69 µM; in assay [4], greater than 10 µM.

`O=C(Nc1nc2cccc(C3(F)CCC4(CC3)CN(C(=O)CC(F)F)C4)n2n1)C1CC1` [US11919896, Compound 4-8]: the half-maximal inhibitory concentration (IC50) in assay [1] is greater than 10 µM; in assay [2] it was 0.244 µM; in assay [3], 3.71 µM; in assay [4], 0.364 µM.

As for `O=C(Nc1nc2cccc(C3CCC4(CC3)CN(C(=O)C3(F)CC3)C4)n2n1)[C@H]1CC1(F)F` [US11919896, Compound 8-7], the IC50 in assay [1] is 1.03 µM; in assay [2] it was 0.063 µM; in assay [3] it was 5.46 µM; in assay [4], greater than 10 µM.

For `N#CCC(=O)N1CC2(CCC(c3cccc4nc(NC(=O)[C@H]5CC5(F)F)nn34)CC2)C1` [US11919896, Compound 8-8], the IC50 in assay [1] is 0.109 µM; in assay [2] it was 0.06 µM; in assay [3] it was 1.38 µM; in assay [4] it was greater than 10 µM.

As for `O=C(Nc1nc2cccc(C3CCC4(CC3)CN(C(=O)C3(F)CC3)C4)n2n1)[C@@H]1CC1(F)F` [US11919896, Compound 9-4], the 50% inhibitory concentration (IC50) in assay [1] was 1.19 µM; in assay [2], 0.253 µM; in assay [3] it was 0.982 µM; in assay [4], greater than 10 µM.

As for `N#CCC(=O)N1CC2(CCC(c3cccc4nc(NC(=O)C5CC5(F)F)nn34)CC2)C1` (stereo not drawn) [US11919896, Compound 9-5], the 50% inhibitory concentration (IC50) in assay [1] was 0.175 µM; in assay [2], 0.224 µM; in assay [3] it was 0.624 µM.

Usually IC50 stands for the concentration at which inhibition is half-maximal.
